Assay results taken from patent publication US20240270809A1, “ORAL GLP RECEPTOR AGONISTS” (priority 2020, published 2024).
Positions of bridges follow the written chain, without caps; N, C: chain ends. Non-standard residues stand in square brackets, D forms with d. Residues, ends and D or L forms follow the SMILES beside them. *: point of attachment. Malonyl(2,2-Me2,histaminyl) = CC(C)(C(=O)NCCc1cnc[nH]1)C(=O)*; Ala(1H-tetrazol-5-yl) = N[C@@H](Cc1nnn[nH]1)C(=O)O; d(αMeF) = C[C@@](N)(Cc1ccccc1)C(=O)O; αMeL = CC(C)C[C@](C)(N)C(=O)O; Nle = CCCC[C@H](N)C(=O)O; Aib = CC(C)(N)C(=O)O

How the values were obtained:
human GLP2 receptor = target: T1, human GLP2 receptor (Homo sapiens, UniProt O95838); test: cAMP accumulation assay, functional agonism of human GLP2 receptor; type: cell-based; settings: HEK cells infected with human GLP2 receptor BacMam virus, HTRF cAMP; for Emax: HEK293, read-out: Human GLP-2R agonist cAMP Emax; for EC50: read-out: Human GLP-2R agonist cAMP pEC50 (converted)
T1 construct: expressed in transfected cells; host or cells: HEK cells, BacMam virus transduction
T1 sequence (O95838 1-553): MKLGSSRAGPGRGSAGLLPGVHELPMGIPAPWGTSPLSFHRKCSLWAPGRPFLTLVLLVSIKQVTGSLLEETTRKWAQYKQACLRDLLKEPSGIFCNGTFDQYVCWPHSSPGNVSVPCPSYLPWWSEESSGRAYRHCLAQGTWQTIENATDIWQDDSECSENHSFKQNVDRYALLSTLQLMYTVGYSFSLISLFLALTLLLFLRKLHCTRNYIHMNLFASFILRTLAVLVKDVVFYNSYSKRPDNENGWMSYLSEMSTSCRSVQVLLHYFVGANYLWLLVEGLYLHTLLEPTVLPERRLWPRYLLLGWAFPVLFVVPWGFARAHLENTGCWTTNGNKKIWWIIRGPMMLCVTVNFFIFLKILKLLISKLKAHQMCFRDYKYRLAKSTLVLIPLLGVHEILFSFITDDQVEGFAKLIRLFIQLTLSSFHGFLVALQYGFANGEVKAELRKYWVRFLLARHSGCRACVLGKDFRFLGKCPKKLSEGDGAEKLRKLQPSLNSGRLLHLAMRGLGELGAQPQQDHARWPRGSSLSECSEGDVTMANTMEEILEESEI
In short: (§1)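 HEK cells transduced for 24 hours with human GLP2 or GLP1 receptor BacMam virus were frozen, then stimulated with agonist in HBSS containing 0.5 mM IBMX. After 45 min at 37° C, cAMP was measured by HTRF after adding detection reagents in lysis buffer.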

human GLP1 receptor = target: T2, human GLP1 receptor (Homo sapiens, UniProt P43220); test: cAMP accumulation assay, functional agonism of human GLP1 receptor; type: cell-based; settings: HEK cells infected with human GLP1 receptor BacMam virus, HTRF cAMP; for Emax: HEK293, read-out: Human GLP-1R agonist cAMP Emax; for EC50: read-out: Human GLP-1R agonist cAMP pEC50 (converted)
T2 construct: expressed in transfected cells; host or cells: HEK cells, BacMam virus transduction
In short: as §1

[1] = Stability of peptides in rat intestinal fluid (ratIF); settings: Sprague Dawley, undiluted rat small intestinal fluid (ratIF)
Experimental: Peptides were tested for in vitro stability in native intestinal fluid obtained from the rat small intestine. Rat Sprague Dawley Small Intestinal Fluid (ratIF) (from Biotrend art. no. RSD-SIF-MI-30ML, undiluted) was preincubated for 15 min at 37° C. and spiked with test and reference item working solutions. Experiments were conducted in duplicate in a non-serial manner. The total incubation volume per replicate was 150 μl. […] All samples and calibration standards (prepared in ratIF) were precipitated by addition of 300 μl precipitant (ACN / 2% acetic acid / 0.2% HFBA, (precipitation regent, PR)) containing internal standards (ISTD) to 150 μl sample. After incubation for 1 h at room temperature all samples were centrifuged for 10 min at 2,200×g (room temperature).

mouse GLP2 receptor = target: T3, mouse GLP2 receptor (Mus musculus, UniProt Q5IXF8); test: cAMP accumulation assay, functional agonism of mouse GLP2 receptor; type: cell-based; settings: HEK cells transiently transfected with mouse GLP2 receptor, HTRF cAMP; for Emax: HEK293, read-out: Mouse GLP-2R agonist cAMP Emax; for EC50: read-out: Mouse GLP-2R agonist cAMP pEC50 (converted)
T3 construct: expressed in transfected cells; host or cells: HEK cells, transient transfection with GeneJuice
T3 sequence (Q5IXF8 1-512): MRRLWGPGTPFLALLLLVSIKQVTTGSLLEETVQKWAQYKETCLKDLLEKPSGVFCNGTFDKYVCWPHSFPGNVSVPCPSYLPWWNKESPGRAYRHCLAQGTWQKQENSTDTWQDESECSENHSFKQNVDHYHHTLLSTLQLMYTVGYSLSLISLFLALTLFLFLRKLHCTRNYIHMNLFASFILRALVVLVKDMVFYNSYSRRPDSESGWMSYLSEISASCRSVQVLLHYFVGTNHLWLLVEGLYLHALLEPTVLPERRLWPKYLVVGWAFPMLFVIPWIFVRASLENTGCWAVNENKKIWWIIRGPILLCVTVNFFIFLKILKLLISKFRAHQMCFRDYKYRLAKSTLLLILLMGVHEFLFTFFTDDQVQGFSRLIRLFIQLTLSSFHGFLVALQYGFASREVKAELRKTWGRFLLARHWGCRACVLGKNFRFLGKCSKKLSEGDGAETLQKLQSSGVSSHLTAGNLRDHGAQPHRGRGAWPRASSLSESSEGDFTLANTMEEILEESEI
In short: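 Transiently transfected HEK cells (24 h, frozen, 8000/well) in HBSS with 0.5 mM IBMX exposed to compound concentration series for 45 min at 37 °C. cAMP measured by HTRF after lysis and 1 h at RT; pEC50 from four-parameter concentration-response fit.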

[2] = Stability of peptides in Fasted-State Simulated Intestinal Fluid (FaSSIF); type: in vitro ADME; settings: FaSSIF with 10 mg/ml pancreatin, 37° C.; for remaining at 0.25 h: FaSSIF pH 6.5 with 10 mg/ml pancreatin, t = 15 mins
mouse GLP1 receptor = target: T4, mouse GLP1 receptor (Mus musculus, UniProt O35659); test: cAMP accumulation assay, functional agonism of mouse GLP1 receptor; type: cell-based; settings: HEK cells transiently transfected with mouse GLP1 receptor, HTRF cAMP; for Emax: HEK293, read-out: Mouse GLP-1R agonist cAMP Emax; for EC50: read-out: Mouse GLP-1R agonist cAMP pEC50 (converted)
T4 construct: expressed in transfected cells; host or cells: HEK cells, transient transfection with GeneJuice
T4 sequence (O35659 22-463): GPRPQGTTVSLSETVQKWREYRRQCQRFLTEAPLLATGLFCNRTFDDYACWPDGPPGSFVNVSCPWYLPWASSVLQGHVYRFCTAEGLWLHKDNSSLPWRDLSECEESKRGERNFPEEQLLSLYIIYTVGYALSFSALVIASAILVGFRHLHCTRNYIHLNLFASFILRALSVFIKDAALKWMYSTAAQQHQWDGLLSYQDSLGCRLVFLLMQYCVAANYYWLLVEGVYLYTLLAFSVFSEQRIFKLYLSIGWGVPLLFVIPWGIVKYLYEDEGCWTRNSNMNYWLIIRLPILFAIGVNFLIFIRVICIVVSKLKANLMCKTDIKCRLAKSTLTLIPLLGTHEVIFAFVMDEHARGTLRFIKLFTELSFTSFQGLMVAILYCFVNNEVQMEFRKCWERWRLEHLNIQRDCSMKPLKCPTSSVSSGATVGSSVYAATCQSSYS
Experimental: CAMP production upon agonist stimulation of mouse GLP2 or GLP1 receptors was assessed utilizing HiRange cAMP kit (Cisbio). In brief, HEK cells were transiently transfected for 24 hours with cDNA using GeneJuice Transfection reagent (EMD Millipore) and frozen at −80° C. for later use in the assay. […] Cells were prepared in the assay buffer (HBSS (Lonza) supplemented with 0.5 mM IBMX (Tocris)). After 45 min incubation at 37° C., the reaction was stopped by addition of the HTRF detection reagents in the lysis buffer provided in the kit. Following 1-hour incubation at RT, plates were read on Pherastar FS (BMG Labtech, Inc.) using standard HTRF settings. Dotmatics Studies software was used for calculation of pEC50 values by fitting data to a four-parameter concentration response curve.

T2 sequence (P43220 24-463): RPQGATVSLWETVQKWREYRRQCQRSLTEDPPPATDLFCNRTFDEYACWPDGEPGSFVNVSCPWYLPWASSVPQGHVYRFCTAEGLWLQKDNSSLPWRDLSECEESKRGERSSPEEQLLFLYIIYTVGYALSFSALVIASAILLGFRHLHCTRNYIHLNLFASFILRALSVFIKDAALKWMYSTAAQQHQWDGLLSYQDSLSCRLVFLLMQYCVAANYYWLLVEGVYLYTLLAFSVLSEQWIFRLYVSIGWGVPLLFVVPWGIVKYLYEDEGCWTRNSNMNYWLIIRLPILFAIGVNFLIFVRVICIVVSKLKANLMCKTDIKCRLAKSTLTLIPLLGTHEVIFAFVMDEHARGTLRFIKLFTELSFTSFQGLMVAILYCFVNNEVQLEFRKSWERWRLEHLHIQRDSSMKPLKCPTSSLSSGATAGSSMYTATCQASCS

Structure (SMILES) | Emax (human GLP2 receptor) | EC50 (human GLP2 receptor) | Emax (human GLP1 receptor) | EC50 (human GLP1 receptor) | remaining at 0.5 h [1] | Emax (mouse GLP2 receptor) | EC50 (mouse GLP2 receptor) | remaining at 0.25 h [2] | Emax (mouse GLP1 receptor) | EC50 (mouse GLP1 receptor) | remaining at 0.5 h ([2]; t=30 mins, pH 6.5, 10 mg/ml pancreatin)
CCCC[C@H](NC(=O)[C@H](CCC(=O)O)NC(=O)[C@@H]1CC(=O)NCCCC[C@H](NC(=O)[C@H](CC(=O)O)NC(=O)C(C)(C)NC(=O)[C@@H](N)Cc2c[nH]cn2)C(=O)N[C@@H](CO)C(=O)N[C@@H](Cc2ccccc2)C(=O)N[C@@H](CO)C(=O)N1)C(=O)N[C@](C)(Cc1ccccc1)C(=O)N[C@H](C(=O)N[C@@](C)(CC(C)C)C(=O)N[C@@H](CC(C)C)C(=O)N[C@@H](CC(=O)O)C(=O)N[C@H]1CCC(=O)NCCCC[C@@H](C(=O)N[C@@H](CC(=O)O)C(=O)N[C@@H](Cc2ccccc2)C(=O)N[C@H](C(=O)N[C@H]2CCC(=O)NCCCC[C@@H](C(=O)N[C@H](C(=O)N[C@@H](CCCCN)C(N)=O)[C@@H](C)O)NC(=O)[C@H]([C@@H](C)CC)NC(=O)[C@H](CC(C)C)NC(=O)[C@H](Cc3c[nH]c4ccccc34)NC2=O)[C@@H](C)CC)NC(=O)[C@H](C)NC(=O)[C@H](C)NC(=O)[C@H](CCCCN)NC1=O)[C@@H](C)O [Example 36] (H-H[Aib]DKSFSDE[Nle][d(αMeF)]T[αMeL]LDEKAAKDFIEWLIKTK-NH2; lactam 4-8, 16-20, 24-28; N-terminus and C-terminus assumed) | 104% | 0.0316 nM | 97.1% | 0.0316 nM | 23.3% |  |  |  |  |  | 
CCCC[C@H](NC(=O)[C@H](CCC(=O)O)NC(=O)[C@H](CC(=O)O)NC(=O)[C@H](CO)NC(=O)[C@H](Cc1ccccc1)NC(=O)[C@H](CO)NC(=O)CNC(=O)[C@H](CC(=O)O)NC(=O)C(C)(C)NC(=O)[C@@H](N)Cc1c[nH]cn1)C(=O)N[C@H](Cc1ccccc1)C(=O)N[C@H](C(=O)N[C@H](C(=O)N[C@@H](CC(C)C)C(=O)N[C@@H](CC(=O)O)C(=O)N[C@H]1CCC(=O)NCCCC[C@@H](C(=O)N[C@@H](CC(=O)O)C(=O)N[C@@H](Cc2ccccc2)C(=O)N[C@H](C(=O)N[C@@H](CC(N)=O)C(=O)N[C@@H](Cc2c[nH]c3ccccc23)C(=O)N[C@@H](CC(C)C)C(=O)N[C@H](C(=O)N[C@@H](CCC(N)=O)C(=O)N[C@H](C(=O)N[C@@H](CCCCN)C(=O)N[C@H](C(=O)N[C@H](C(=O)N[C@@H](CC(=O)O)C(N)=O)[C@@H](C)O)[C@@H](C)CC)[C@@H](C)O)[C@@H](C)CC)[C@@H](C)CC)NC(=O)[C@H](C)NC(=O)[C@H](C)NC(=O)[C@H](CCCCN)NC1=O)[C@@H](C)CC)[C@@H](C)O [Example 89] (H-H[Aib]DGSFSDE[Nle][dF]TILDEKAAKDFINWLIQTKITD-NH2; lactam 16-20 (inferred); C-terminus assumed) | 102% | 0.00251 nM | 99.6% | 3.16 nM |  | 98.4% | 0.00631 nM | 10.5% | 94.5% | 0.794 nM | 
CCCC[C@H](NC(=O)[C@H](CCC(=O)O)NC(=O)[C@H](CC(=O)O)NC(=O)[C@H](CO)NC(=O)[C@H](Cc1ccccc1)NC(=O)[C@H](CO)NC(=O)CNC(=O)[C@H](CC(=O)O)NC(=O)C(C)(C)NC(=O)[C@@H](N)Cc1c[nH]cn1)C(=O)N[C@H](Cc1ccccc1)C(=O)N[C@H](C(=O)N[C@H](C(=O)N[C@@H](CC(C)C)C(=O)N[C@@H](CC(=O)O)C(=O)N[C@@H](CC(C)C)C(=O)N[C@@H](CCCCN)C(=O)N[C@@H](C)C(=O)N[C@@H](C)C(=O)N[C@@H](CCCCN)C(=O)N[C@@H](CC(=O)O)C(=O)N[C@@H](Cc1ccccc1)C(=O)N[C@H](C(=O)N[C@@H](CC(N)=O)C(=O)N[C@@H](Cc1c[nH]c2ccccc12)C(=O)N[C@@H](CC(C)C)C(=O)N[C@H](C(=O)N[C@@H](CCC(N)=O)C(=O)N[C@H]1CCCCNC(=O)CC[C@@H](C(N)=O)NC(=O)[C@H]([C@@H](C)O)NC(=O)[C@H]([C@@H](C)CC)NC(=O)[C@H](CCCCN)NC1=O)[C@@H](C)CC)[C@@H](C)CC)[C@@H](C)CC)[C@@H](C)O [Example 93] (H-H[Aib]DGSFSDE[Nle][dF]TILDLKAAKDFINWLIQKKITE-NH2; lactam 29-33; N-terminus and C-terminus assumed) | 98.6% | 0.00501 nM | 95.3% | 3.98 nM |  | 98.5% | 0.251 nM | 13.5% | 95.5% | 2.51 nM | 
CCCC[C@@H]1NC(=O)[C@H](CCC(=O)O)NC(=O)[C@@H](NC(=O)[C@H](CO)NC(=O)[C@H](Cc2ccccc2)NC(=O)[C@H](CO)NC(=O)CNC(=O)[C@H](Cc2nn[nH]n2)NC(=O)C(C)(C)C(=O)NCCc2c[nH]cn2)CCCCNC(=O)C[C@@H](C(=O)N[C@H](C(=O)N[C@@H](CC(C)C)C(=O)N[C@@H](CC(=O)O)C(=O)N[C@H]2CC(=O)NCCCC[C@@H](C(=O)N[C@@H](CC(=O)O)C(=O)N[C@@H](Cc3ccccc3)C(=O)N[C@H](C(=O)N[C@@H](CC(N)=O)C(=O)N[C@@H](Cc3c[nH]c4ccccc34)C(=O)N[C@@H](CC(C)C)C(=O)N[C@H](C(=O)N[C@@H](CCC(N)=O)C(=O)N[C@H](C(=O)N[C@H]3CCC(=O)NCCCC[C@@H](C(N)=O)NC(=O)[C@H]([C@@H](C)O)NC(=O)[C@H]([C@@H](C)CC)NC3=O)[C@@H](C)O)[C@@H](C)CC)[C@@H](C)CC)NC(=O)[C@H](C)NC(=O)[C@H](C)NC(=O)[C@H](CCCCN)NC2=O)[C@@H](C)CC)NC(=O)[C@@H](Cc2ccccc2)NC1=O [Example 1] ({Malonyl(2,2-Me2,histaminyl)}-[Ala(1H-tetrazol-5-yl)]GSFSKE[Nle][dF]DILDDKAAKDFINWLIQTEITK-NH2; lactam 6-10, 14-18, 28-31) | 103% | 0.398 nM | 90.1% | 0.794 nM |  | 97.7% | 10 nM |  | 91.5% | 0.126 nM | 5%
